Test results published in ChEMBL document CHEMBL2203065, “Synthesis and glycosidase inhibitory activity of novel (2-phenyl-4H-benzopyrimedo[2,1-b]-thiazol-4-yliden)acetonitrile derivatives” (Bioorg Med Chem Lett, 2012).

Legend:
[1] = biological target: Lysosomal alpha-glucosidase (Mus musculus, UniProt P70699); assay: Inhibition of liver glucosidase in Swiss mouse liver extracts
[2] = Inhibition of pancreatic glucosidase in Swiss mouse pancreatic extracts
Pancreatic alpha-amylase = biological target: T1, Pancreatic alpha-amylase (Sus scrofa, UniProt P00690); assay: Inhibition of porcine pancreatic alpha amylase using starch as substrate by Bernfeld method
T1 sequence (P00690 whole entry): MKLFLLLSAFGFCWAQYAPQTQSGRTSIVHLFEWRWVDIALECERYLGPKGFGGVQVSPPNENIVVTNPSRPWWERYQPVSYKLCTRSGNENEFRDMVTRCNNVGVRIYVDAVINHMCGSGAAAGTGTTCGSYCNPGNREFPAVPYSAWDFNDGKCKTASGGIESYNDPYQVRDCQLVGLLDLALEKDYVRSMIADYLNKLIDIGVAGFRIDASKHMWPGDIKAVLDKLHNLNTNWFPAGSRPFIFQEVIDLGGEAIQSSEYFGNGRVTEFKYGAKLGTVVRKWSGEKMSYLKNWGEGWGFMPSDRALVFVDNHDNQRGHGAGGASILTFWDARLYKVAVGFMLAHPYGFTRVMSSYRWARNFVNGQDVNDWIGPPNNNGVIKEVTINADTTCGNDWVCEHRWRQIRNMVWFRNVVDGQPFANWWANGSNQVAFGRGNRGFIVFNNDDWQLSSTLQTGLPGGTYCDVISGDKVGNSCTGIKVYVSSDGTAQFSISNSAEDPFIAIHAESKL

[3] = Inhibition of intestinal glucosidase in Swiss mouse intestinal extracts

Lysosomal alpha-glucosidase, sequence (P70699 whole entry): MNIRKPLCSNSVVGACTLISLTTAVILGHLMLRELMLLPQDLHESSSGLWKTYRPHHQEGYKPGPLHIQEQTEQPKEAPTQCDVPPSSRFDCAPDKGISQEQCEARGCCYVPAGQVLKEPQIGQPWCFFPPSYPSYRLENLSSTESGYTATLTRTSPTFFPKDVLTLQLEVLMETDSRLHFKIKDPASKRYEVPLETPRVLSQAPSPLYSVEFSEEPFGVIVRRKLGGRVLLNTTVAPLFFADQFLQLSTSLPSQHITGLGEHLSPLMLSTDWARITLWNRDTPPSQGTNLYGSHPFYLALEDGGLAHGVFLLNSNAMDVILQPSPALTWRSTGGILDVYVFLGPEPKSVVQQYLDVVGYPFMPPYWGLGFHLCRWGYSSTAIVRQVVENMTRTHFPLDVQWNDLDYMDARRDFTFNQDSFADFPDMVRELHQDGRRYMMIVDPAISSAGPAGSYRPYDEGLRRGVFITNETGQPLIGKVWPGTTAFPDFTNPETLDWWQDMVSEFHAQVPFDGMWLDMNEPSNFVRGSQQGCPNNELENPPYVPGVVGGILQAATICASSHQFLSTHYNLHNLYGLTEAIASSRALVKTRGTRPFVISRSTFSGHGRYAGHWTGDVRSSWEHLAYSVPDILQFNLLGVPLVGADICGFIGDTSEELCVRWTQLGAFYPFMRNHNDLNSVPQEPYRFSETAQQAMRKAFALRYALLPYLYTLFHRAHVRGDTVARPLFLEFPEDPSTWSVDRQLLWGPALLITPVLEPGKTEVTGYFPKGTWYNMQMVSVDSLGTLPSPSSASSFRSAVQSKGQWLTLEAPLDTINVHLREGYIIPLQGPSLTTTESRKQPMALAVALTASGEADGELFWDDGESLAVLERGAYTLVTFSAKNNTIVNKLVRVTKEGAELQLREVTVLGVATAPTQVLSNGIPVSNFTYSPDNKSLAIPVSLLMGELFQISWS

Row | SMILES | IC50 [1] [µM] | IC50 [2] [µM] | IC50 (Pancreatic alpha-amylase) [µM] | IC50 [3] | IC50 ([3]; read-out: IC50) [µM]
1 | N#C/C=C1\C=C(c2ccc(Br)cc2)N=C2Sc3ccccc3N21 | 28.2 | 23 | 15.3 | Not Active | –
2 | N#C/C=C1\C=C(c2ccccc2)N=C2Sc3ccccc3N21 | 23.5 | 21.4 | 23 | – | 32.6
3 | N#C/C=C1\C=C(c2ccc(Cl)cc2)N=C2Sc3ccccc3N21 | 22 | 17.4 | 21.9 | – | 17.6
4 | N#C/C=C1\C=C(c2ccc(F)cc2)N=C2Sc3ccccc3N21 | 25 | 17.5 | 24.4 | – | 37.3
5 | COc1ccc2c(c1)SC1=NC(c3ccc(F)cc3)=C/C(=C\C#N)N12 | 21.1 | 19 | 20.6 | – | 30.4
6 | N#C/C=C1\C=C(c2ccc3ccccc3c2)N=C2Sc3ccccc3N21 | 21.2 | 22.9 | 19.9 | – | 22.6
7 | COc1ccc2c(c1)SC1=NC(c3ccc4ccccc4c3)=C/C(=C\C#N)N12 | 15.9 | 30.3 | 18.7 | – | 62.5
8 | COc1ccc2c(c1)SC1=NC(c3ccc(Cl)cc3)=C/C(=C\C#N)N12 | 19.7 | 20.7 | 20.2 | – | 25.9
9 | Cc1ccc(C2=C/C(=C\C#N)N3C(=N2)Sc2ccccc23)cc1 | 20.3 | 34.9 | 23.2 | – | 36.1
10 | COc1ccc2c(c1)SC1=NC(c3ccc(C)cc3)=C/C(=C\C#N)N12 | 18.3 | 29.5 | 19.5 | – | 27.4
11 | COc1ccc2c(c1)SC1=NC(c3ccccc3)=C/C(=C\C#N)N12 | 25 | 29.2 | 22.3 | – | 41.6
12 | CCOc1ccc2c(c1)SC1=NC(c3ccccc3)=C/C(=C\C#N)N12 | 18.7 | 46.1 | 21.8 | – | 38.6
13 | COc1ccc2c(c1)SC1=NC(c3ccc(Br)cc3)=C/C(=C\C#N)N12 | 14.1 | 33.8 | 17.4 | – | 30.5
14 | C[C@H]1O[C@H](O[C@H]2[C@H](O)[C@@H](O)[C@@H](O[C@H]3[C@H](O)[C@@H](O)C(O)O[C@@H]3CO)O[C@@H]2CO)[C@H](O)[C@@H](O)[C@@H]1N[C@H]1C=C(CO)[C@@H](O)[C@H](O)[C@H]1O (stereo not given in full) [ACARBOSE] | > 100 | > 100 | – | Not Active | –
